Experimental data: BigSolDB 2.1

CC(=O)Nc1ccc(O)cc1
solubility (mole fraction)
Settings	293.2 K	298.2 K	303.2 K	308.2 K	313.2 K
in acetonitrile	0.00682	0.00805	0.00935	0.0107	0.0118
in water	0.00164	0.00202	0.00229	0.00284	0.00313
